Source: PubChem BioAssay (NCI)
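Five concentrations, 48 hours, 96-well plates. Abbreviation: GI50, concentration required for 50% inhibition of growth. TGI: concentration producing complete growth inhibition.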

Key:
Experiment in all cases: NCI tumour cell line growth inhibition, 48 h
[1] = tested on: 786-0 renal
[2] = tested on: A498 renal
[3] = tested on: A549 NSCLC
[4] = tested on: ACHN renal
[5] = tested on: BT-549 breast
[6] = tested on: CAKI-1 renal
[7] = tested on: CCRF-CEM leukemia
[8] = tested on: COLO 205 colon
[9] = tested on: DU-145 prostate
[10] = tested on: EKVX NSCLC
[11] = tested on: HCC-2998 colon
[12] = tested on: HCT-116 colon
[13] = tested on: HCT-15 colon
[14] = tested on: HL-60(TB) leukemia
[15] = tested on: HOP-62 NSCLC
[16] = tested on: HS 578T breast
[17] = tested on: HT29 colon
[18] = tested on: IGROV1 ovarian
[19] = tested on: K-562 leukemia
[20] = tested on: KM12 colon
[21] = tested on: LOX IMVI melanoma
[22] = tested on: M14 melanoma
[23] = tested on: MALME-3M melanoma
[24] = tested on: MCF7 breast
[25] = tested on: MDA-MB-231 breast
[26] = tested on: MDA-MB-435
[27] = tested on: MOLT-4 leukemia
[28] = tested on: NCI-H226 lung
[29] = tested on: NCI-H23 lung
[30] = tested on: NCI-H460 lung
[31] = tested on: NCI-H522 lung
[32] = tested on: NCI/ADR-RES ovarian
[33] = tested on: OVCAR-3 ovarian
[34] = tested on: OVCAR-4 ovarian
[35] = tested on: OVCAR-5 ovarian
[36] = tested on: OVCAR-8 ovarian
[37] = tested on: PC-3 prostate
[38] = tested on: RPMI-8226 leukemia
[39] = tested on: RXF 393 renal
[40] = tested on: SF-268 CNS
[41] = tested on: SF-295 CNS
[42] = tested on: SF-539 CNS
[43] = tested on: SK-MEL-2 melanoma
[44] = tested on: SK-MEL-28 melanoma
[45] = tested on: SK-MEL-5 melanoma
[46] = tested on: SK-OV-3 ovarian
[47] = tested on: SN12C renal
[48] = tested on: SNB-75 CNS
[49] = tested on: SR leukemia
[50] = tested on: SW-620 colon
[51] = tested on: T-47D breast
[52] = tested on: TK-10 renal
[53] = tested on: U251 CNS
[54] = tested on: UACC-257 melanoma
[55] = tested on: UACC-62 melanoma
[56] = tested on: UO-31 renal

COc1cc(NC(C)CCCN)c2nccc(C)c2c1OC (configuration not stated)
GI50 [1]: 20.3 µM
TGI [1]: 55.7 µM
GI50 [2]: 14.4 µM
TGI [2]: 30 µM
GI50 [3]: 22.8 µM
TGI [3]: 58.5 µM
GI50 [4]: 20.7 µM
TGI [4]: 50.1 µM
GI50 [5]: 16 µM
TGI [5]: 30.2 µM
GI50 [6]: 19 µM
TGI [6]: 40.8 µM
GI50 [7]: 15.4 µM
TGI [7]: 48 µM
GI50 [8]: 3.37 µM
TGI [8]: 11.8 µM
GI50 [9]: 15.3 µM
TGI [9]: 28.6 µM
GI50 [10]: 18 µM
TGI [10]: 33.8 µM
GI50 [11]: 4.85 µM
TGI [11]: 17.8 µM
GI50 [12]: 5 µM
TGI [12]: 18.7 µM
GI50 [13]: 11.5 µM
TGI [13]: 24.5 µM
GI50 [14]: 4.56 µM
TGI [14]: 16.8 µM
GI50 [15]: 11.1 µM
TGI [15]: 28 µM
GI50 [16]: 8.5 µM
TGI [16]: 35.4 µM
GI50 [17]: 4.72 µM
TGI [17]: 20.9 µM
GI50 [18]: 4.01 µM
TGI [18]: 22.7 µM
GI50 [19]: 19.2 µM
TGI [19]: 53.9 µM
GI50 [20]: 16.7 µM
TGI [20]: 35.1 µM
GI50 [21]: 14.7 µM
TGI [21]: 28.7 µM
GI50 [22]: 2.97 µM
TGI [22]: 12.7 µM
GI50 [23]: 2.84 µM
TGI [23]: 9.84 µM
GI50 [24]: 0.372 µM
TGI [24]: 1.71 µM
GI50 [25]: 8.18 µM
TGI [25]: 25.3 µM
GI50 [26]: 17.1 µM
TGI [26]: 32.7 µM
GI50 [27]: 15.3 µM
TGI [27]: 42.1 µM
GI50 [28]: 18.8 µM
TGI [28]: 43 µM
GI50 [29]: 4.21 µM
TGI [29]: 22 µM
GI50 [30]: 14.1 µM
TGI [30]: 29.5 µM
GI50 [31]: 5.28 µM
TGI [31]: 19.6 µM
GI50 [32]: 20.5 µM
TGI [32]: 74.6 µM
GI50 [33]: 3.17 µM
TGI [33]: 10.1 µM
GI50 [34]: 2.7 µM
TGI [34]: 10.2 µM
GI50 [35]: 16.1 µM
TGI [35]: 42.1 µM
GI50 [36]: 14.5 µM
TGI [36]: 42.3 µM
GI50 [37]: 10.5 µM
TGI [37]: 34 µM
GI50 [38]: 5.67 µM
TGI [38]: 23.2 µM
GI50 [39]: 17.1 µM
TGI [39]: 40.3 µM
GI50 [40]: 17.9 µM
TGI [40]: 48.3 µM
GI50 [41]: 17 µM
TGI [41]: 32.5 µM
GI50 [42]: 10.2 µM
TGI [42]: 22.5 µM
GI50 [43]: 18.8 µM
TGI [43]: 49.8 µM
GI50 [44]: 14.6 µM
TGI [44]: 29.6 µM
GI50 [45]: 3.97 µM
TGI [45]: 15.7 µM
GI50 [46]: 18.6 µM
TGI [46]: 57.1 µM
GI50 [47]: 11.4 µM
TGI [47]: 25.8 µM
GI50 [48]: 14.1 µM
TGI [48]: 29.4 µM
GI50 [49]: 20.8 µM
TGI [49]: 60.7 µM
GI50 [50]: 3.54 µM
TGI [50]: 15 µM
GI50 [51]: 4.04 µM
TGI [51]: 24.1 µM
GI50 [52]: 19.8 µM
TGI [52]: 45.8 µM
GI50 [53]: 14.1 µM
TGI [53]: 27.4 µM
GI50 [54]: 13.7 µM
TGI [54]: 29.4 µM
GI50 [55]: 16.6 µM
TGI [55]: 32.1 µM
GI50 [56]: 17.6 µM
TGI [56]: 34.4 µM
